Laboratory results from patent US12403128B2, “Compositions and methods for blocking sodium channels” (University of Virginia Patent Foundation, priority 2017, dated 2025).
Values after ≈ are worked out from the molar mass of the structure shown. Counter-ions that a name gives are not always drawn.

How the values were obtained:
Nav1.6 [1] = target: T1, Nav1.6 (Homo sapiens, UniProt Q9UQD0); assay: % block of Nav1.6 at 100 μM and IC50 (NaV1.6); format: cell-based; settings: for inhibition at 100 µM: 100 μM compound
Experimental: Evaluation of Compounds for % Block of Nav1.6 at 100 μM
Compounds of the present invention were tested in an assay for % block of Nav1.6 at a concentration of 100 μM compound. Table 1 also indicates the melting point ranges for some compounds.
Some such compounds correspond to a compound of Formula III, wherein R9 is substituted with a halogen, a nitro or a CF3 group. In comparing MV1089, MV1090 and MV1091, it is shown that compounds of Formula III where R3 is H result in higher % block than when R3 is substituted. e.g., by OCH3. In comparing MV1066, MV1084, MV1085, MV1086, MV1087 and MV1088, it is shown that compounds of Formula III where R9 is halogen, a nitro or a CF3 group result in higher % block than when R9 is OCH3, COOH or CH3.

Solubility = format: physicochemical
Chemical stability = format: physicochemical; settings: after 24 h at pH 7.4
CYP3A4 = CYP3A4 (Homo sapiens, UniProt P08684); assay: Metabolic stability (CYP3A4); format: in vitro ADME; settings: CYP3A4, 1 hr
Sequence of CYP3A4 (P08684 whole entry, species assumed): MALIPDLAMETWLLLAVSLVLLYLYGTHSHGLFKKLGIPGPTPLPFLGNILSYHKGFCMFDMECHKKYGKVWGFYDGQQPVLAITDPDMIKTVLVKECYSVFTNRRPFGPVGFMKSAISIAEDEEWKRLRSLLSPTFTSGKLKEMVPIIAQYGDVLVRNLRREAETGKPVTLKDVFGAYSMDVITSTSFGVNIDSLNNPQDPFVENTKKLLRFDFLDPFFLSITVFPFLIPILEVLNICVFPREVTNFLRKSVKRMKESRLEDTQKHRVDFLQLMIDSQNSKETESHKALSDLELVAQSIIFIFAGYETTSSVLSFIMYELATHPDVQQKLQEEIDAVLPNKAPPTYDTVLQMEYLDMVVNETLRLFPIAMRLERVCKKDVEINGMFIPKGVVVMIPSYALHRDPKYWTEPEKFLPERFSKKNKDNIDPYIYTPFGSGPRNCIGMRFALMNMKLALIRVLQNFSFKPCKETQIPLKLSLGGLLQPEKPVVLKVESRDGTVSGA

[2] = tested on: maximal electroshock (MES) seizures; assay: MES test, comparison compounds (species not stated); format: in vivo
Source text: The MES is a model for generalized tonic-clonic seizures and provides an indication of a compound's ability to prevent seizure spread when all neuronal circuits in the brain are maximally active. These seizures are highly reproducible and are electrophysiologically consistent with human seizures. For an MES test, a drop of anesthetic/electrolyte solution (0.5% tetracaine hydrochloride in 0.9% saline) is applied to the eyes of each animal prior to placement of corneal electrodes Electrical stimulus in the MES test may be 50 mA, 60 Hz, for mice and 150 mA, 60 Hz, for rats delivered for 0.2 s. Abolition of the hindleg tonic extensor component of the seizure was used as the endpoint. Mice may be initially tested at various intervals following various doses, e.g., 30, 100 and 300 mg/kg of test compound given by intraperitoneal (IP) injection while rats are initially screened at a fixed dose of 30 mg/kg

[3] = tested on: Metrazol-induced clonic seizures; assay: scM test, comparison compounds (species not stated); format: in vivo
Experimental: Subcutaneous injection of the convulsant Metrazol produces clonic seizures in laboratory animals. […] Animals may be pretreated with various doses of the test compound given by ip injection. At a previously determined TPE (time to peak) of the test compound, the dose of Metrazol which will induce convulsions in 97% of animals (CD97:85 mg/kg mice) may be injected into a loose fold of skin in the midline of the neck. The animals may be placed in isolation cages to minimize stress and observed for the next 30 min for the presence or absence of a seizure. An episode of clonic spasms, approximately 3-5 seconds, of the fore and/or hindlimbs, jaws, or vibrissae may be taken as the endpoint. […] The scM test represents acute animal seizures.

[4] = tested on: 6 Hz psychomotor seizures; assay: 6 Hz test, comparison compounds (species not stated); format: in vivo; settings: species and current not stated
Experimental: Compounds were tested using a 6 Hz psychomotor seizure test. […] For example, both the MES and scM models are insensitive to levetiracetam, a compound considered potentially useful in the management of refractory seizures. […] Thus, the 6 Hz test can serve as a therapy resistant screening paradigm of acute seizure activity.

[5] = Tox, comparison compounds (species not stated); format: in vivo
[6] = target: T2, rat NaV1.6 sodium channels (Rattus norvegicus, UniProt O88420); assay: Dose response on rat NaV1.6 channels in HEK293 cells; format: cell-based; settings: rat Nav1.6 channel
T2 construct: expressed in transfected cells; host or cells: HEK293
Source text: Evaluation of Dose Response and Activation Response Compounds on Rat NaV1.6 Channels in Human Embryonic Kidney Cells (HEK293).

NaV1.6 sodium channels = NaV1.6 sodium channels (Homo sapiens, UniProt Q9UQD0); assay: State-dependent inhibition: steady state inactivation, use-dependent block; format: cell-based; settings: for use-dependent block: 20 Hz
Source text: Evaluation of Compounds as State-Dependent Inhibitors
Use dependent block is an important characteristic for AED activity since it allows increased inhibition of sodium channels during increased neuronal activity as is observed during seizures.

Nav1.6 [7] = target: T1, Nav1.6; assay: High-throughput flux assay, Nav1.6; format: cell-based; settings: human isoform;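 also: IC50 from the flux assay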
Experimental: (§1) Evaluation of Compounds on Human Isoforms Using a High-Throughput Flux Assay
(§2) Compounds were tested using a high-throughput flux assay across Nav1.5, Nav1.6 and Nav1.7.

NaV1.5 [8] = target: T3, NaV1.5 (Homo sapiens, UniProt Q14524); assay: High-throughput flux assay, NaV1.5; format: cell-based; settings: human isoform;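 also: IC50 from the flux assay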
T3 sequence (Q14524 whole entry, canonical isoform): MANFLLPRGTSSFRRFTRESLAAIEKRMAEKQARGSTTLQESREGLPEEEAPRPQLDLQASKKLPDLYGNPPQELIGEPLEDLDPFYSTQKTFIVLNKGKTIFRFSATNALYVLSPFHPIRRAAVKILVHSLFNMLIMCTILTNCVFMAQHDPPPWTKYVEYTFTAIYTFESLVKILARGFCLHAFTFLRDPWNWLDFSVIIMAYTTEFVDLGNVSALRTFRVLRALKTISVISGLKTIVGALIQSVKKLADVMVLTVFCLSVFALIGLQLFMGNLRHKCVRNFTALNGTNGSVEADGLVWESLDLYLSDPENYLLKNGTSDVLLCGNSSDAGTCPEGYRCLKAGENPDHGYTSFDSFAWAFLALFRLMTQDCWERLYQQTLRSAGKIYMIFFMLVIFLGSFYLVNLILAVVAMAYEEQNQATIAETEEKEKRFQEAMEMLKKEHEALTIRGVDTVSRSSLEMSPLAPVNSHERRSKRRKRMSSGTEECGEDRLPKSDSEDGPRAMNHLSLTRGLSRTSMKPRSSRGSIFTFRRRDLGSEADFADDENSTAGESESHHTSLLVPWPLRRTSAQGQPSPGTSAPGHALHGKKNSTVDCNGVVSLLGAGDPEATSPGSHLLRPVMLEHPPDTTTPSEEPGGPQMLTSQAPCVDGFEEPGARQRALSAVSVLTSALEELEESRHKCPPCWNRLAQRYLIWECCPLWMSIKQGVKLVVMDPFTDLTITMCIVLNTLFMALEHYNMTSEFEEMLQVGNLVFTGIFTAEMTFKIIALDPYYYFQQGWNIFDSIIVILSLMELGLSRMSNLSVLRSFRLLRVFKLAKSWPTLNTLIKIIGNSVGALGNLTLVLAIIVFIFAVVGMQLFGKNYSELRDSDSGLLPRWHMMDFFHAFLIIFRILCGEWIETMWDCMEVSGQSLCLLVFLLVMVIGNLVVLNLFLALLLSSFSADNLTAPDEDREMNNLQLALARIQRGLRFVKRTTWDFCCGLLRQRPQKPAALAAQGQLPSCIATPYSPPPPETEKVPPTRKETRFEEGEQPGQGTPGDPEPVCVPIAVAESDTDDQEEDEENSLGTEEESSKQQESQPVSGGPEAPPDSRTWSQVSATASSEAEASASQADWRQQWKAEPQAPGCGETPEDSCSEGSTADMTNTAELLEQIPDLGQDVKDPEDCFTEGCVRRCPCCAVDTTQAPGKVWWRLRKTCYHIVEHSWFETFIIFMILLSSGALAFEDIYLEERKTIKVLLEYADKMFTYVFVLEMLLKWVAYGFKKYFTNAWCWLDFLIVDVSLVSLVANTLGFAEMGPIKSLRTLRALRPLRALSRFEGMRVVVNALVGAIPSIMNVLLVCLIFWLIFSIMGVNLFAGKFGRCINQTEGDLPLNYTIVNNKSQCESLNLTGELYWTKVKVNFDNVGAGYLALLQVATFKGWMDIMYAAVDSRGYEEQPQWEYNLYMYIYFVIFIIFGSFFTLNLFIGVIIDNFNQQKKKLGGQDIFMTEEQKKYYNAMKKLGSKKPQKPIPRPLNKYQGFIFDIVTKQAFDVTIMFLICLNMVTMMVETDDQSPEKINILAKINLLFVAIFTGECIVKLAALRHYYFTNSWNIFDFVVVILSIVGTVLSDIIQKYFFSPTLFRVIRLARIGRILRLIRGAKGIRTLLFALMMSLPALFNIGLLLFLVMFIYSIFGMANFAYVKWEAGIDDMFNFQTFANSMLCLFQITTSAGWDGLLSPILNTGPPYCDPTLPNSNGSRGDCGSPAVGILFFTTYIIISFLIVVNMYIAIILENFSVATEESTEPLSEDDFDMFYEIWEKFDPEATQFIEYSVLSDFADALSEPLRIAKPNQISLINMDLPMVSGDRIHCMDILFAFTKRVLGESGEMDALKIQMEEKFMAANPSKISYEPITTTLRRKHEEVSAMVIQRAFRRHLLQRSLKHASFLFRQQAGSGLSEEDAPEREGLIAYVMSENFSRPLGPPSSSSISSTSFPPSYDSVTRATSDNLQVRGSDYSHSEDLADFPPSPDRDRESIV
Experimental: as §1, §2

NaV1.7 [9] = target: T4, NaV1.7 (Homo sapiens, UniProt Q15858); assay: High-throughput flux assay, NaV1.7; format: cell-based; settings: human isoform;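 also: IC50 from the flux assay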
T4 sequence (Q15858 whole entry, canonical isoform): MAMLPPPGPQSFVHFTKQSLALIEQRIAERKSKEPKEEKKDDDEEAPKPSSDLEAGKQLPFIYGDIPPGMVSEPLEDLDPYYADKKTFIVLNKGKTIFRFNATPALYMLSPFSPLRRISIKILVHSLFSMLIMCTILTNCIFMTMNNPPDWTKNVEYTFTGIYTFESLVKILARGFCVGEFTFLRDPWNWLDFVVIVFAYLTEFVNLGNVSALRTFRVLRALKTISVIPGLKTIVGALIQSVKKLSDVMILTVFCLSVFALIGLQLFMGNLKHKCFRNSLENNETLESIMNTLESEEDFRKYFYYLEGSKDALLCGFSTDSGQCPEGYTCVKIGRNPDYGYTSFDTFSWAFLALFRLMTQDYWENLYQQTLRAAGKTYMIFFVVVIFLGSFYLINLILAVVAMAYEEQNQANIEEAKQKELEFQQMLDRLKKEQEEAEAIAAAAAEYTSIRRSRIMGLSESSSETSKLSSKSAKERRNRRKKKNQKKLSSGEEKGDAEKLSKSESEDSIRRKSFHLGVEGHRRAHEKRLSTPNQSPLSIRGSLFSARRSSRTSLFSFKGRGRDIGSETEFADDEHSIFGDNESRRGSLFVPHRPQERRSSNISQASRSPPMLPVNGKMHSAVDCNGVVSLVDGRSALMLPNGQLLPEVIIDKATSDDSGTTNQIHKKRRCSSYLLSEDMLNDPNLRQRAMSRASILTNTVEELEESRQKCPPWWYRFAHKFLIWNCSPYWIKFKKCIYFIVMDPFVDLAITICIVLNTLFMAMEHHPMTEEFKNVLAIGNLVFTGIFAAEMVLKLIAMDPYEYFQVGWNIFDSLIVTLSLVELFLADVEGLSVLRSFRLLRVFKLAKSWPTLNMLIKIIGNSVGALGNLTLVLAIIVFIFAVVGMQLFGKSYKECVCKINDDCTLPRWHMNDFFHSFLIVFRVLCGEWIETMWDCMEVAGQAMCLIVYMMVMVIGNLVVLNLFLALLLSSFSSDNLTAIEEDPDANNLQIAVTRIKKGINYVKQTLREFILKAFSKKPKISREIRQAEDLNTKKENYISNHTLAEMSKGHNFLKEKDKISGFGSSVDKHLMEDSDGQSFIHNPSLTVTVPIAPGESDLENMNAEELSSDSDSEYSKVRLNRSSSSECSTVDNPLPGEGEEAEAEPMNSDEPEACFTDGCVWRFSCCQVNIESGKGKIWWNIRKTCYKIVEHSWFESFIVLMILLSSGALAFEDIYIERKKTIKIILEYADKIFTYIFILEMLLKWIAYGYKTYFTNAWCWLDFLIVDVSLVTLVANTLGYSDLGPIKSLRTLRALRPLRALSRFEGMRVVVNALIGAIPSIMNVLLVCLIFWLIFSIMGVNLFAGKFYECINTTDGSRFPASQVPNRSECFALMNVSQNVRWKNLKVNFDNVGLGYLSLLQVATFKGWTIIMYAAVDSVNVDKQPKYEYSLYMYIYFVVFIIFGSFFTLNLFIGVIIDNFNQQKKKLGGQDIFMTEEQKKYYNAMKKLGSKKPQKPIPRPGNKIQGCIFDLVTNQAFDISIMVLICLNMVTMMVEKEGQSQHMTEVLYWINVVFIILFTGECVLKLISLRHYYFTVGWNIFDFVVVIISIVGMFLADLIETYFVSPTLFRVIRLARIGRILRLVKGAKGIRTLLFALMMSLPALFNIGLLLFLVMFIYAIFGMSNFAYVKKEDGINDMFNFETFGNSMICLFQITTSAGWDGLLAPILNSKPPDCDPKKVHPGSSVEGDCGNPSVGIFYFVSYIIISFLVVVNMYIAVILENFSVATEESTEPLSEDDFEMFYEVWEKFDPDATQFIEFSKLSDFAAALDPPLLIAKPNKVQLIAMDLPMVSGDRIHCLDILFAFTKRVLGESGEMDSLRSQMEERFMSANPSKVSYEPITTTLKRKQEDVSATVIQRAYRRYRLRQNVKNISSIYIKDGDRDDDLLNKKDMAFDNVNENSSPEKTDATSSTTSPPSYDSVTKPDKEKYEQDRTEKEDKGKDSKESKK
Experimental: as §1, §2

Nav1.6 [10] = target: T1, Nav1.6; assay: Qube assay, NaV1.6; format: cell-based; settings: human isoform; read-out: Qube EP IC50 NaV1.6
Experimental: (§3) Evaluation of Compounds on Human Isoforms Using Qube Assay.
(§4) Compounds were tested using a Qube assay across NaV1.5, NaV1.6 and NaV1.7.

NaV1.5 [11] = target: T3, NaV1.5; assay: Qube assay, NaV1.5; format: cell-based; settings: human isoform; read-out: Qube EP IC50 NaV1.5
Experimental: as §3, §4

NaV1.7 [12] = target: T4, NaV1.7; assay: Qube assay, NaV1.7; format: cell-based; settings: human isoform; read-out: Qube EP IC50 NaV1.7
Experimental: as §3, §4

[13] = tested on: knock-in mouse carrying the human N1768D gain of function NaV1.6 mutation (spontaneous seizures); assay: Seizure suppression in NaV1.6 mutation knock-in mouse model; format: in vivo; settings: 100 mg/kg
Experimental: In Vivo Evaluation for Seizure Suppression in a Human Gain of Function NaV1.6 Mutation Knock-In Mouse Model.
Compounds were tested in vivo for seizure suppression in a knock-in mouse carrying the human N1768D gain of function NaV1.6 mutation. These knock-in mice experience spontaneous seizures. All test compounds were evaluated at 100 mg/kg.

| Compound | ED50 [2] [mg/kg] | ED50 [3] [mg/kg] | ED50 [4] [mg/kg] | Tox [5] [mg/kg] | inhibition at 100 µM (Nav1.6 [1]) [%] | IC50 [6] [µM] | IC50 (Nav1.6 [7]) [µM] | IC50 (NaV1.5 [8]) [µM] | IC50 (NaV1.7 [9]) [µM] | IC50 (Nav1.6 [10]) [µM] | IC50 (NaV1.5 [11]) [µM] | IC50 (NaV1.7 [12]) [µM] | seizure suppression [13] | shift of half maximal voltage for inactivation (V1/2) compared to control (NaV1.6 sodium channels; 10 μM) [mV] | use-dependent block (NaV1.6 sodium channels) | other results |
| --- | --- | --- | --- | --- | --- | --- | --- | --- | --- | --- | --- | --- | --- | --- | --- | --- |
| c1ccc(-c2c[nH]c(-c3ccccc3)n2)cc1 [MV1115] | 61.7 | 160 | 47.2 | 126 |  |  |  |  |  |  |  |  |  |  |  | IC50 (Nav1.6 [1]; comparison compounds, read-out: IC50 (NaV1.6)): 32 µM; solubility (Solubility; pH 3, aqueous buffer): 237 µM (≈ 52.2 µg/mL); solubility (Solubility; pH 7.4, aqueous buffer): 175 µM (≈ 38.5 µg/mL); recovery at 24 h (Chemical stability): 94%; recovery at 1 hr (CYP3A4): 87% |
| COc1ccc(-c2nc(-c3ccccc3)c[nH]2)cc1 [MV1118] | 46.8 | 142 | 52.2 | 223 |  |  |  |  |  |  |  |  |  |  |  |  |
| Cc1nc(-c2ccc(Cl)cc2)[nH]c1-c1ccccc1 [MV1502, 2-(4-chlorophenyl)-4-methyl-5-phenyl-1H-imidazole hydrochloride] |  |  |  |  | 95 | 1.2 | 1.61 | 4.89 | 4.76 | 0.749 | 12.7 | 3.88 | suppressed seizures |  |  | shift of half maximal voltage for inactivation (V1/2) compared to control (NaV1.6 sodium channels; 1 μM): −9.3 mV |
| Cc1nc(-c2cccc(C(F)(F)F)c2)[nH]c1-c1ccccc1 [MV1504, 4-methyl-5-phenyl-2-[3-(trifluoromethyl)phenyl]-1H-imidazole hydrochloride] |  |  |  |  | 100 | 12 | 2.07 | 4.32 | 5.72 | 3.32 | 13.3 | 7.95 | suppressed seizures | −10.9 | profound use-dependent block |  |
| Cc1nc(-c2cccc(Cl)c2)[nH]c1-c1ccccc1 [MV1505, 2-(3-chlorophenyl)-4-methyl-5-phenyl-1H-imidazole] |  |  |  |  | 100 | 5.4 | 1.59 | 3.64 | 5.22 | 2.72 | 10 | 8.04 | suppressed seizures | −12.7 | profound use-dependent block |  |
